The source of these data is patent US7259236B2, “RBP1L1, a novel retinoblastoma binding protein-related gene encoding an antigenic epitope and methods of using thereof” (Regents of the University of California, priority 2001, dated 2007).

Assay [1] concerns purified specific IgG. Briefly: ELISA with synthetic peptide antigens. Format: binding, human. As to conditions: ELISA and Western blot, truncated synthetic peptides; plate coated with 5 μg/ml peptide, IgG 200 μg/ml diluted 1:250 to 1:4,000. The method, then:
The binding of purified specific IgG to synthetic peptides was assessed by ELISA. 96-well polystyrene plates (Reacti-Bind maleic anhydride-activated plates, Pierce) coated with each of the peptides (100 μl of 5 μg/ml) in PBS, incubated overnight at 4° C., and then blocked with 1% bovine serum albumin. Purified specific IgG (200 μg/ml) was serially diluted 1:250, 1:500, 1:1000, 1:2000, and 1:4000, then added in triplicate to peptide-coated wells (500 ng per well), and incubated for 3 hours at room temperature. Peroxidase-conjugated goat anti-human IgG (Pierce) was added at room temperature for 1 hour, followed by the addition of 400 μg/ml of o-phenylenediamine dihydrochloride in peroxide substrate solution. Reactivity was measured at 490 nm. Background absorbance without the primary antibody was subtracted from each sample's absorbance.
(§1) The wells of a 96-well ELISA plate were coated with 100 μl of a peptide (5 μg/ml). The specific human IgG (200 μg/ml) was serially diluted from 1:250 to 1:4,000.

For assay [2], the system named is purified specific IgG binding to GST-RBP1L1 fusion protein. Briefly: Inhibition by synthetic peptides of purified specific IgG binding to GST-RBP1L1 fusion protein (Western blot). The arrangement: species or system human. The following applies: peptide 5 μg/ml, purified specific IgG 0.5 μg/ml, fusion protein from clone 151. The method, then:
To determine the minimal number of amino acids necessary for antibody binding, synthetic peptides of various lengths were tested for their ability to inhibit the binding of purified specific IgG to GST-RBP1L1 fusion protein by Western blot analysis. The synthetic peptides tested were:
[…] The antigen and purified IgG mixture was agitated at 4° C. overnight, and the inhibition of antibody binding was assessed by Western blotting using GST-RBP1L1 fusion protein as the target antigen.
The minimum number of amino acids required for the antibody binding was determined by testing various truncated synthetic peptides in ELISAs and on Western blots. The following set of peptides was generated by sequentially reducing the 10-amino acid peptide by one amino acid from either the amino terminus or the carboxyl terminus:
as §1
A general note: Immunoblotting shows a protein as a band on a membrane.

IKPSLGSKK (listed as Homo sapiens): in assay [1], the “epitope recognized by the purified specific human IgG” value is given as “minimal epitope recognized”. Besides, the “ability to competitively inhibit the binding of purified specific IgG to the GST-RBP1L1 fusion protein” value in assay [2] is reported as “completely inhibited”.

Turning to IKPSLGSKKN (listed as Homo sapiens), the “ability to competitively inhibit the binding of purified specific IgG to the GST-RBP1L1 fusion protein” value in assay [2] is recorded as “completely inhibited”.
